This is an account of results in article PMC6362833 (ACS chemical neuroscience, 2017).

By pIC50 is commonly meant −log10 of the IC50, conventionally taken in molar units. What is called IC50 is the concentration needed to halve the response being measured. For orientation: viability means the share of living cells, or the viability signal relative to a control. Lower therefore signals a greater loss of cells. The inhibition is the drop in the measured response relative to a control, in per cent.

Series [1] deals with GST-tagged calmodulin (N-terminally 6X-His-GST-tagged human CaM, residues 1-149) (human) (UniProt P0DP23). Briefly: fluorescence polarisation.
The next series has as its target CaM/AC8-Nt interaction (Homo sapiens, UniProt P0DP23). The series is described as follows: Fluorescence polarization. The format is binding. The note with it: for IC50: FP; for slope of concentration-response curve: FP concentration response. (In general: Polarisation of emitted light reports the rotation of a fluorescent probe.)
Series [2] is described as follows: CytoTox-Fluor acute cytotoxicity assay. The format is cell-based. The note with it: human, HEK293T cells, pH 7.4.
The target in series [3] is (Homo sapiens, UniProt P0DP23). Briefly: CaM-stimulated AC1 activity in membrane preparations. The format is biochemical. Particulars: read-out: AC1 % inhibition.
For series [4], the target named is AC1. Described as above. The format is biochemical. Particulars: membranes of HEK293 cells stably expressing AC1, CaM-stimulated.
Chain of AC1 (Q08828 whole entry): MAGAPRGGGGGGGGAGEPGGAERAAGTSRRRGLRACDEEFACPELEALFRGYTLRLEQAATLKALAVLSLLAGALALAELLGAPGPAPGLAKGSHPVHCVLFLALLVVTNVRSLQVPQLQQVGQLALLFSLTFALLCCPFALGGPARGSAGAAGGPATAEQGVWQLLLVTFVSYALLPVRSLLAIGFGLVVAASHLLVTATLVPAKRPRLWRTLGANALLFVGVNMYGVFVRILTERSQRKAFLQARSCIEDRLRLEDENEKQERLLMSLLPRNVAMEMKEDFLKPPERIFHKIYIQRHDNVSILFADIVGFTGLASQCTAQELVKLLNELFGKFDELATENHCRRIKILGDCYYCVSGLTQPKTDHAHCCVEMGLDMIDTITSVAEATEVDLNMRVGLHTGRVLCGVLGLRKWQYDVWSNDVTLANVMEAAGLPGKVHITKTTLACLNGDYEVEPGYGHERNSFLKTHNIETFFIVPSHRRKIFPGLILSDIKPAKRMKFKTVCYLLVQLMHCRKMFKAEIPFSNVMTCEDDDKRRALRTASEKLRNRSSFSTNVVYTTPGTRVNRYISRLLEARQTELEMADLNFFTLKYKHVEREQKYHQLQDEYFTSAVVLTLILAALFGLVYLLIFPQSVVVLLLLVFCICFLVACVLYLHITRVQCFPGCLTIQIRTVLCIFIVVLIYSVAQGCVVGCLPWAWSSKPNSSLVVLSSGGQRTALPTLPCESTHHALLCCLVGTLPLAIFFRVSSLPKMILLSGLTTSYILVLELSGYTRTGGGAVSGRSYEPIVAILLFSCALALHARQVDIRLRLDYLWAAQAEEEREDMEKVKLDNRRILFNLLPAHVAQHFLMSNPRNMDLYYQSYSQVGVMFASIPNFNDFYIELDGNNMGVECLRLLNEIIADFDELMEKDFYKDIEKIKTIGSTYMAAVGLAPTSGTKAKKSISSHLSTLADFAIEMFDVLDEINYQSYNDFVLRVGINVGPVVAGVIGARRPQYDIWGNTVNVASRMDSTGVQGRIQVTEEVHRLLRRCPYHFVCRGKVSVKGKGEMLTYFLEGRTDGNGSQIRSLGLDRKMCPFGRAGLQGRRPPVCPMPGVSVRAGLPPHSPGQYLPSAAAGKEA
Another series deals with AC8 (Homo sapiens, UniProt P40145). The series is described as follows: CaM-stimulated AC8 activity in membrane preparations. The format is biochemical. The note with it: for inhibition at 100 µM: read-out: AC8 % inhibition; for potency against AC8 compared with AC1: membrane preparations.
Chain of AC8 (P40145 whole entry): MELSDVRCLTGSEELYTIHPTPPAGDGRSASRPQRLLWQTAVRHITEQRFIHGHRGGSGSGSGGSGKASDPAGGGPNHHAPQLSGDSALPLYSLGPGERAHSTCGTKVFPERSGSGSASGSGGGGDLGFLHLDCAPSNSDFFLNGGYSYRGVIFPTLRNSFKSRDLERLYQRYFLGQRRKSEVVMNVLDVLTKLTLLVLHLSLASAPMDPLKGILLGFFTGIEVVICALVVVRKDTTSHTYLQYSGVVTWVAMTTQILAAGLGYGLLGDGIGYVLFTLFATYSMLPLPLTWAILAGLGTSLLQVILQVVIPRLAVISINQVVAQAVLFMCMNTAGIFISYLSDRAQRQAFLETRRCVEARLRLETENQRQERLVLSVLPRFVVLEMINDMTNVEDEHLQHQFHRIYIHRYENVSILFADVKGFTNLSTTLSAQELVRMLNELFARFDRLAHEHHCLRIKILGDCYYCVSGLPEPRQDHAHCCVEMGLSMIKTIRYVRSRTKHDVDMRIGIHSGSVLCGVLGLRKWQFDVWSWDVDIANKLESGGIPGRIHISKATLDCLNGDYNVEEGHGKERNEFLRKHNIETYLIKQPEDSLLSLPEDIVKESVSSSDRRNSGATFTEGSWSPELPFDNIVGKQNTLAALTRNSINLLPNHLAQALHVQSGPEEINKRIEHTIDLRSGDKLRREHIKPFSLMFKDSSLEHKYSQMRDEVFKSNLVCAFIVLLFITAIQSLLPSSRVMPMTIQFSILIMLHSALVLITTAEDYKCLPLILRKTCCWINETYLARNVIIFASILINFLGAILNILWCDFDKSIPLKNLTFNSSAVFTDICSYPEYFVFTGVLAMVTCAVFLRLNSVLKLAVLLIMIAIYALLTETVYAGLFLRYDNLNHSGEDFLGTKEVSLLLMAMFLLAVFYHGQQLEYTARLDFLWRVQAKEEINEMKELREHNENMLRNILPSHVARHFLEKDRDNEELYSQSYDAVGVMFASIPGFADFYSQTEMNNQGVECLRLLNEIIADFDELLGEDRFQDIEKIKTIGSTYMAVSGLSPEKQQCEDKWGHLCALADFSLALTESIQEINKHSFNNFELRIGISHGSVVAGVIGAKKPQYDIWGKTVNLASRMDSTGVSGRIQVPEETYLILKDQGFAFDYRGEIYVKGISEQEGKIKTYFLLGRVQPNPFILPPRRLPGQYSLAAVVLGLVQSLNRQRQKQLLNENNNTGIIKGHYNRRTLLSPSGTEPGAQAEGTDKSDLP
In a further series the test system is HERG potassium channel. The note with it: cited from earlier work.
The next series addresses CaM/AC8-C2b interaction (Homo sapiens, UniProt P0DP23). Briefly: Fluorescence polarization. The format is binding. Particulars: for IC50: FP; for inhibition of CaM/AC8-C2b relative to EGTA control: maximal inhibition, no detergent.
Another series relates to HEK-293T cells. Briefly: CytoTox-Fluor acute cytotoxicity assay. The format is cell-based. The note with it: 30 min; for effect on cell viability: up to 31.6 μM.
Another series deals with CaM/AC8 complex (Homo sapiens, UniProt P0DP23). The series is described as follows: AC8/CaM NanoBiT complementation assay in HEK-293T cells. The format is cell-based, rat AC8. The note with it: 30 min pretreatment.
The target in series [5] is AC1 (Homo sapiens, UniProt Q08828). Briefly: CaM-stimulated AC1 activity in membrane preparations. The format is biochemical.
Chain of AC1 (Homo sapiens, UniProt Q08828) (Q08828 whole entry): as the sequence (Q08828 whole entry) above
In the next series the test system is L-type Ca^2+ channels. The note with it: cited from earlier work.
Setting [6] is: AC8-Nt pIC50, 0% Triton, 316 nM GST-CaM, 100 nM Cy5-AC8-Nt, no Triton X-100.
[7] abbreviates: AC8-Nt pIC50, 0.01% Triton, 0.01% Triton X-100.
Setting [8] is: AC8-C2b pIC50, 0% Triton, 316 nM GST-CaM, 100 nM Cy5-AC8-C2b, no Triton X-100.
Where [9] appears, read: AC8-C2b pIC50, 0.01% Triton, 0.01% Triton X-100.

“And” between values parts separate entries of the source, which are not always exact repeats. Identical values can stand only once. A value given as a limit tells only on which side of the number the result lay.

Take “unlabeled AC8-Nt peptide (from UniProt P40145 30-54)”: the pIC50 in series [1] is 5.3.

For `CCCCCCCCCCCC[N+](C)(C)CCOc1ccccc1` [domiphen, Domiphen bromide], the IC50 is 14.5 µM at CaM/AC8-Nt interaction (setting [6]), 15.5 µM against CaM/AC8-Nt interaction (setting [7]) and 17.4 µM on AC8. This compound also showed a viability at 30 min, 31.6 µM in [2] of 99%. Besides, the inhibition at 100 µM stood at 96 ± 4% in series [3] and 104 ± 1% at AC8. The “AC1 pIC50” value on AC1 [4] was found to be 4.55 ± 0.09. Also, the “IC50 at HERG potassium channel” value with HERG potassium channel was “single-digit nanomolar”.

Consider “unlabeled AC8-C2b peptide (from UniProt P40145 1191-1214)”, for which, in [1], the pIC50 was determined as 4.95.

On to `CCCCC(CC)CNC(=N)NC(=N)NCCCCCCNC(=N)NC(=N)NCC(CC)CCCC` (stereo not drawn) [alexidine], for which the half-maximal inhibitory concentration (IC50) on CaM/AC8-Nt interaction (setting [6]) is 2.14 µM; at CaM/AC8-Nt interaction (setting [7]) it was 1.41 µM; at CaM/AC8-C2b interaction (setting [8]), 5.89 µM; against CaM/AC8-C2b interaction (setting [9]), 5.89 µM; on AC8 it was 4.9 µM. Further, on CaM/AC8-Nt interaction, the “slope of concentration-response curve” value was −2.7 ± 0.2. In addition, the “concentration at which cell viability begins to be reduced” value in the series with HEK-293T cells (HEK-293T) was ≥ 10 µM. The inhibition at 100 µM was determined as 162 ± 10% in series [3] and 106 ± 2% on AC8. The “AC1 pIC50” value at AC1 [4] turned out to be 5.24 ± 0.1.

Consider `CCCCCCCCCCCCCCCC[N+](C)(C)C` [cetrimonium, cetrimonium bromide], for which the IC50 at CaM/AC8-Nt interaction (setting [6]) was 11.5 µM; on CaM/AC8-Nt interaction (setting [7]) it was 11.5 µM; on AC1 [5], 39.8 µM; on AC8 it was 22.4 µM. Besides, the “NanoBiT potency” value on CaM/AC8 complex is listed as “potencies similar to that observed for CDZ”. This compound also had a viability at 30 min, 31.6 µM in series [2] of 89%. The values for the inhibition at 100 µM on AC1 [5] (read-out: AC1 % inhibition) and on AC8 were 86 ± 7% and 102 ± 2%, respectively. Moreover, at AC8, the “potency against AC8 compared with AC1” value was “slightly more potent against AC8 than AC1”.

Turning to `CCCCCCCCCCCCCCCC[N+](C)(C)CCN(Cc1ccc(OC)cc1)c1ncccn1` [thonzonium, Thonzonium bromide], the IC50 at CaM/AC8-Nt interaction (setting [6]) was 5.37 µM; on CaM/AC8-Nt interaction (setting [7]) it was 9.12 µM; against CaM/AC8-C2b interaction (setting [8]), 10 µM; at CaM/AC8-C2b interaction (setting [9]), 12.6 µM; at AC8 it was 38.9 µM. Moreover, the “effect of Triton X-100 on inhibition of CaM/AC8-C2b” value at CaM/AC8-C2b interaction (0.01% Triton X-100) is “Increased inhibition”. Further, the “inhibition of CaM/AC8-C2b relative to EGTA control” value at CaM/AC8-C2b interaction is “approximately 50%”. For the same compound, the “NanoBiT potency” value on CaM/AC8 complex is “potencies similar to that observed for CDZ”. In addition, the “effect on cell viability” value with HEK-293T cells is given as “did not adversely affect cell viability”. The inhibition at 100 µM was determined as 77 ± 6% in [3] and 91 ± 1% at AC8. In addition, the “AC1 pIC50” value at AC1 [4] was found to be 4.20 ± 0.06. Further, on AC8, the “potency against AC8 compared with AC1” value was “slightly more potent against AC8 than AC1”.

With `CCCCCCCCOc1ccccc1C(=O)Nc1ccc(C(=O)OCC[N+](C)(CC)CC)cc1` [otilonium, otilonium bromide], the concentration for half-maximal inhibition (IC50) is 16.6 µM on CaM/AC8-Nt interaction (setting [6]), 33.1 µM against CaM/AC8-Nt interaction (setting [7]) and 24 µM against AC8. For the same compound, on CaM/AC8-Nt interaction, the “slope of concentration-response curve” value is given as −3.5 ± 0.2. Further, the viability at 30 min, 31.6 µM in series [2] came out at 77%. For the same compound, the values for the inhibition at 100 µM (in series [3]; at AC8) were 103 ± 4% and 99 ± 1%, respectively. The “AC1 pIC50” value at AC1 [4] came out at 4.58 ± 0.03. Besides, the “IC50 at L-type Ca2+ channels” value in the series on L-type Ca^2+ channels is “single-digit micromolar”.

For the compound `CC(C)(C)CC(C)(C)c1ccc(OCCOCC[N+](C)(C)Cc2ccccc2)cc1` [benzethonium, Benzethonium chloride], the “effect on cell viability” value in the series on HEK-293T cells was “no negative effect on cell viability”.

With `Clc1ccc(C(c2ccc(Cl)cc2)n2cc[n+](CC(OCc3ccc(Cl)cc3Cl)c3ccc(Cl)cc3Cl)c2)cc1` (stereo not drawn) [CDZ, calmidazolium chloride], the 50% inhibitory concentration (IC50) was 2.75 µM and 2.82 µM at CaM/AC8-Nt interaction (setting [6]); 2.88 µM on CaM/AC8-Nt interaction (setting [7]); 3.16 µM against CaM/AC8-C2b interaction (setting [8]); 9.77 µM against CaM/AC8-C2b interaction (setting [9]); 4.68 µM at AC8. At CaM/AC8-Nt interaction (concentration response up to 100 μM, relative to EGTA control), the “inhibition of CaM/AC8-Nt FP” value was “complete inhibition”. For the same compound, on CaM/AC8-C2b interaction (0.01% Triton X-100), the “effect of Triton X-100 on inhibition of CaM/AC8-C2b” value is “Increased inhibition”. Besides, the “inhibition of CaM/AC8-C2b relative to EGTA control” value against CaM/AC8-C2b interaction is on record as “approximately 50%”. Moreover, in the series with HEK-293T cells, the “effect on cell viability” value was “appreciable cell toxicity at 31.6 μM”. The inhibition at 100 µM in series [3] came out at 97 ± 3%; on AC8, 100%. For the same compound, on AC1 [4], the “AC1 pIC50” value amounted to 4.87 ± 0.06.

Regarding `NCCCCCCNS(=O)(=O)c1cccc2c(Cl)cccc12` [W7, N-(6-aminohexyl)-5-chloro-1-naphthalenesulfonamide], the “effect on cell viability” value in the series on HEK-293T cells is recorded as “without negatively affecting cell viability”.

Turning to `CN1CCN(CCCN2c3ccccc3Sc3ccc(C(F)(F)F)cc32)CC1` [TFP, trifluoperazine], the “effect on cell viability” value in the series with HEK-293T cells is reported as “without negatively affecting cell viability”.
